Results on five compounds are retold here after EP0802181B1, “Retinoids” (F. HOFFMANN-LA ROCHE AG, priority 1996, dated 1997).

Where two headings read alike, the source gives them in different places.

Data set [1] concerns limb bud cell culture. Put plainly: limb bud cell culture assay (evaluation of teratogenic potential). The format is cell-based. From the text: Teratogene Effekte gehören zu den schwerschwiegensten Nebenwirkungen aller Retinoide.
Data set [2] concerns Sebumdrüsen. Put plainly: Minipig model (in vivo), histology of skin biopsies. The text has this:
Die Wirksamkeit der erfindungsgemässen Verbindungen bei der Behandlung der Akne kann mit den nachstehend beschriebenen Versuchsanordnungen gezeigt werden: • 1. Hemmung der Proliferation menschlicher Sebocyten (in vitro) Literatur: Methods in Enzymology 190, 334 (1990), T. Doran and S. Shapiro • 2. Aenderung der Differenzierung von Schweinesebocyten (invitro), Induktion von Keratin 7. Kulturen von Schweinesebocyten werden aus isolierten Sebumdrüsen erwachsener Minischweine hergestellt. Sie reagieren auf die Behandlung mit Retinoiden mit der Expression von Keratin 7, was auch der in vivo Situation entspricht. Keratin 7 wird als ein Marker für eine modifizierte Differenzierung der Sebocyten angesehen. Der entstehende Phenotyp kann kein Sebum mehr produzieren. Die Messung der Keratin 7-Induktion basiert auf einem ELISA assay unter Verwendung eines Maus-monoklonalen Antikeratin 7-Antikörpers. • 3. Minipig-Modell (in vivo) Die Haut der Minischweine hat eine ähnliche anatomische Struktur wie menschliche Haut. Im besonderen ähneln die Sebumdrüsen denen menschlicher Aknepatienten. Unter Retinoid-Behandlung zeigen sie die gleichen histologischen Veränderungen wie beim Menschen. Die Schweine erhalten täglich eine orale Dosis der Versuchssubstanz während 8 Wochen. Alle 2 Wochen wird eine Biopsie genommen und histologisch untersucht.

The mark [3] stands for this setting: limb bud cell culture assay, IC50 correlates with in vivo teratogenicity, read-out: IC50.

Regarding `CC1=C(/C=C/C(C)=C/C=C/C(C)=C\C(=O)O)C(C)(C)C[C@H](O)C1` [Beispiel 1, (2Z,4E,6E,8E)-(R)-9-(4-Hydroxy-2,6,6-trimethyl-cyclohex-1-enyl)-3,7-dimethyl-nona-2,4,6,8-tetraensäure], in data set [1] (setting [3]), the IC50 is more than 1000 nM. In addition, the “Verkleinerung der Sebumdrüsen” value in data set [2] (daily oral dose 10 mg/kg, after 3-4 weeks) is “deutliche Verkleinerung der Sebumdrüsen”. The “Sebumdrüsen nach 8 Wochen” value in data set [2] (daily oral dose 10 mg/kg, after 8 weeks) is listed as “weitgehend verschwunden”. For the same compound, the “Nebenwirkungen auf Haut und Schleimhäute” value in data set [2] (oral dose 50 mg/kg, in contrast to Isotretinoin) is on record as “keinerlei Nebenwirkungen auf Haut und Schleimhäute”.
In the case of `CC1=C(C#C/C(C)=C/C=C/C(C)=C\C(=O)O)C(C)(C)C[C@H](O)C1` [Beispiel 3, (2Z,4E,6E)-(R)-9-(4-Hydroxy-2,6,6-trimethyl-cyclohex-1-enyl)-3,7-dimethyl-nona-2,4,6-trien-8-yn-säure], the IC50 in data set [1] (setting [3]) is more than 1000 nM.
On the same count and under the same terms, under `CC1=C(/C=C/C(C)=C/C=C/C(C)=C\C(=O)O)C(C)(C)C(=O)C=C1` [Beispiel 4, (2Z,4E,6E,8E)-9-(5-Oxo-2,6,6-trimethyl-cyclohexa-1,3-dienyl)-3,7-dimethyl-nona-2,4,6,8-tetraensäure] stands more than 1000 nM.
In data set [1], `CC1=C(/C=C/C(C)=C/C=C/C(C)=C\C(=O)O)C(C)(C)CCC1` [Isotretinoin, reference compound] gave an IC50 of 200 nM.
The same measure, in the same setting: the figure for `CC1=C(/C=C/C(C)=C/C=C/C(C)=C/C(=O)O)C(C)(C)CCC1` [Tretinoin, reference compound] is 80 nM.
